Results taken from article PMC9800617, “Pharmacokinetics/pharmacodynamics of polymyxin B in patients with bloodstream infection caused by carbapenem-resistant Klebsiella pneumoniae” (Frontiers in Pharmacology, 2022).
Like-named read-outs stand apart in the source and are kept apart here. Bridge positions count the residues as written; N and C are the ends. Square brackets hold non-standard residues; d marks the D form. Peptide text beside a SMILES is read from it. * marks the point of attachment. X1 = CC[C@H](C)CCCCC(=O)*; Dab = NCC[C@H](N)C(=O)O

Legend:
[1] = Plasma pharmacokinetics of polymyxin B in CRKP BSI patients (LC-MS/MS; non-compartmental and compartmental); type: in vivo, human; details: mean ± SD
Experimental: Polymyxin B Sulphate for Injection (Lot No. A-1411137) containing 72.0% polymyxin B1 and B1-Ile and 12.1% polymyxin B2 was provided by SPH No. 1 Biochemical & Pharmaceutical Co., Ltd. (Shanghai, China). Prior to administration, polymyxin B was dissolved in 50–100 ml normal saline as per the manufacturer’s instructions then administered intravenously at a dose of 1.25 mg/kg every 12 h (2-h infusion) with an initial loading dose of 2.5 mg/kg (3-h infusion). Treatment lasted for 7–14 days as per treatment guidelines ([Rhodes et al., 2017]). Adverse events were closely monitored and recorded for each patient.
Blood samples (4 mL) for pharmacokinetic analysis were collected in tubes with EDTA-K2 as the anticoagulant immediately before and after administration of the polymyxin B loading dose (the first dose) and immediately before administration of the second dose. Subsequent blood samples were collected during the second visit (5th, 6th or 7th dosing) consisting of a sample immediately prior to the infusion and at .5, 1, 2, 3, 4, 5, 6, 7, 8, 10, and 12 h following the commencement of the infusion. If possible, a final blood sample was collected 24 h after the commencement of the last infusion. All blood samples were centrifuged (4°C, 2,000 g) and plasma collected and stored at −80°C until analysis.
The concentrations of polymyxin B1 (including B1-Ile) and polymyxin B2 were determined using a validated liquid chromatography-tandem mass spectrometry (LC-MS/MS) method ([Liu et al., 2020]). […] The calibration range was .050–5.00 mg/L for polymyxin B1 and .011–.549 mg/L for polymyxin B2. The concentration of polymyxin B was calculated by the sum of concentrations of polymyxin B1 and B2 using molar terms and their molecular weights (polymyxin B1 is 1203.48 g/mol, polymyxin B2 is 1189.45 g/mol).
The PK parameters of polymyxin B were calculated using Phoenix WinNonlin 8.0 (Certara^TM, USA) with non-compartmental and compartmental methods. PPK analysis was conducted using NONMEM 7.4 (Icon Development Solutions, Ellicott City, MD) with G77 FORTRAN complier and FOCEI algorithm. Results from BSI patients in the present study and healthy subjects in a previous study were combined ([Liu et al., 2021]). One- and two-compartment models were tested during development of the base model. Models were developed and evaluated based on an objective function value and goodness-of-fit plots. The covariates were selected using a forward inclusion and backward elimination strategy. The screened covariates were sex, age, body weight, height, body mass index (BMI), creatinine clearance (CLcr), albumin, hemoglobin, total protein, total bilirubin, serum alanine aminotransferase (ALT), serum aspartate aminotransferase (AST), serum creatinine, Sequential Organ Failure Assessment (SOFA) score, and disease state (BSI patients were defined as 1 and healthy subjects were defined as 2). Covariates were included in the model based on the criteria of OFV requiring a decrease of 3.84 (p < .05) in the forward inclusion and an increase of greater of 10.83 (p < .001) in the backward elimination. Bootstrap sampling and visual predictive checks (VPCs) were utilized to validate the robustness of the final model.

[2] = healthy Chinese subjects, ref Liu et al., 2021, cited from earlier work
From the text: Neurotoxicity is another major dose-limiting factor for the polymyxins, although it often goes unreported given many patients receiving polymyxins are mechanically ventilated which makes assessment difficult. Polymyxin-induced neurotoxicity is very likely dose-dependent and is characterized by symptoms such as dizziness, vertigo, visual disturbances, confusion, hallucinations, seizures, ataxia, facial and peripheral parenthesis, and pruritus ([Falagas and Kasiakou, 2006]; [Weinstein et al., 2009]; [Wahby et al., 2010]; [Honore et al., 2013]). While neurologic side effects such as parenthesis h ...

[3] = tested on: carbapenem-resistant K. pneumoniae (CRKP) bloodstream infections; assay: Microbiological and clinical efficacy in CRKP bloodstream infection; type: in vivo, human; details: for Microbiological efficacy: blood culture; for Clinical efficacy: evaluated when the subject withdrew or completed the study; for 28-day survival: 14 days of treatment
Experimental: This prospective, multi-centered, single-armed and open-label clinical trial was conducted in accordance with Good Clinical Practice, International Conference on Harmonization guidelines, and in compliance with the World Medical Association Declaration of Helsinki and was approved by the Ethics Committee of Sir Run Run Shaw Hospital, College of Medicine, Zhejiang University, Hangzhou, China, and other participating centers ([Williams, 2008]). Written informed consent was obtained from each patient or his/her representative before enrollment. Patients with CRKP-positive blood cultures and with an estimated glomerular filtration rate (eGFR) of 60–120 ml/min were included. The inclusion and exclusion criteria are shown in Supplementary Table S1. This clinical trial was registered at http://www.chictr.org.cn (registration number: ChiCTR 1900021137) and was conducted across 2019 and 2020.
The definition of different population groups for safety and efficacy analysis is shown in Supplementary Table S2. Briefly, safety was evaluated based on adverse events (AEs) in patients who received at least one polymyxin B dose. Adverse events were recorded based on patient self-reporting as well as abnormal laboratory test results including serum chemistry and routine blood and urinary testing. Acute kidney injury (AKI) was graded according to the RIFLE criteria ([Bellomo et al., 2004]). The primary endpoint was culture-confirmed bacterial eradication of CRKP from the blood evaluated by blood cultures taken every 3 days following the first dose of polymyxin B administration. Secondary endpoints were clinical outcome (clinical cure or improvement, Supplementary Table S3) evaluated in patients who received at least 3 days of polymyxin B treatment, and 28-day all-cause mortality evaluated in patients who completed 14 days of polymyxin B treatment.

[4] = human, steady state, 1.25 mg/kg/12 h (2-h iv infusion), plasma, LC-MS/MS, non-compartmental

What does the source list for `CC[C@H](C)CCCCC(=O)N[C@@H](CCN)C(=O)N[C@H](C(=O)N[C@@H](CCN)C(=O)N[C@H]1CCNC(=O)[C@H]([C@@H](C)O)NC(=O)[C@H](CCN)NC(=O)[C@H](CCN)NC(=O)[C@H](CC(C)C)NC(=O)[C@@H](Cc2ccccc2)NC(=O)[C@H](CCN)NC1=O)[C@@H](C)O` [polymyxin B] (X1-[Dab]T[Dab][Dab][Dab][dF]L[Dab][Dab]T; lactam 4-C)?
Cmax ([1]; human, 2.5 mg/kg loading dose, 3-h iv infusion, plasma, LC-MS/MS, read-out: Cmax following the loading dose): 5530 ± 1800 ng/mL; level at 12 h ([1]; human, 2.5 mg/kg loading dose, 3-h iv infusion, plasma, LC-MS/MS, read-out: Cmin (12 h) following the loading dose): 1620 ± 410 ng/mL; clearance ([1]; human, plasma, iv, two-compartmental analysis, read-out: CL, clearance from the central compartment (converted)): 0.433 mL/min/kg; Vd [1, 4]: 0.49 ± 0.142 L/kg; half-life [1, 4]: 12.5 ± 3.11 h; AUC(0-t) ([1]; human, steady state, 1.25 mg/kg/12 h (2-h iv infusion), plasma, LC-MS/MS, non-compartmental, read-out: AUC12h): 39800 ± 12500 ng·h/mL; clearance ([1]; human, steady state, 1.25 mg/kg/12 h (2-h iv infusion), plasma, LC-MS/MS, non-compartmental, read-out: CL (converted)): 0.467 mL/min/kg; Cmax ([1]; human, steady state, 1.25 mg/kg/12 h (2-h iv infusion), plasma, LC-MS/MS, non-compartmental, read-out: Cmax): 5420 ± 1690 ng/mL; Cavg (Css,avg) ([1]; steady state, 1.25 mg/kg/12 h (2-h iv infusion), plasma, LC-MS/MS, non-compartmental): 3350 ± 1060 ng/mL; K10, elimination rate constant ([1]; two-compartmental analysis): 0.165 ± 0.065 h⁻¹; K12, rate constant central to peripheral compartment ([1]; two-compartmental analysis): 0.702 ± 0.395 h⁻¹; K21, rate constant peripheral to central compartment ([1]; two-compartmental analysis): 0.214 ± 0.137 h⁻¹; V1, central volume of distribution ([1]; two-compartmental analysis): 0.163 ± 0.036 L/kg; V2, peripheral volume of distribution ([1]; two-compartmental analysis): 0.565 ± 0.243 L/kg; subjects with perioral paraesthesia, dizziness, and numbness of extremities ([2]; single dose 0.75 mg/kg, 1-h infusion, 7 of 10): 70%; subjects with perioral paraesthesia, dizziness, and numbness of extremities ([2]; single dose 1.5 mg/kg, 1.5-h infusion): all subjects; patients alive 28 days after the commencement of therapy ([3]; 4 patients who completed the 14-day treatment protocol): all 4; clinical cure or improvement ([3]; 6/8 patients): 75%; time to negative blood cultures after commencing therapy ([3]; all 8 patients evaluated for microbiological efficacy): ≤ 3 days; Microbiological efficacy ([3]; patient 1): Eradication; Clinical efficacy ([3]; patient 1): Not improved; Microbiological efficacy ([3]; patient 2): Eradication; Clinical efficacy ([3]; patient 2): Improved; 28-day survival ([3]; patient 3): Yes; Microbiological efficacy ([3]; patient 3): Eradication; Clinical efficacy ([3]; patient 3): Cure; Microbiological efficacy ([3]; patient 5): Eradication; Clinical efficacy ([3]; patient 5): Improved; 28-day survival ([3]; patient 6): Yes; Microbiological efficacy ([3]; patient 6): Eradication; Clinical efficacy ([3]; patient 6): Cure; 28-day survival ([3]; patient 7): Yes; Microbiological efficacy ([3]; patient 7): Eradication; Clinical efficacy ([3]; patient 7): Cure; Microbiological efficacy ([3]; patient 8): Eradication; Clinical efficacy ([3]; patient 8): Improved; 28-day survival ([3]; patient 9): Yes; Microbiological efficacy ([3]; patient 9): Eradication; Clinical efficacy ([3]; patient 9): Failure; clinical cure or improvement ([3]; patients evaluated for efficacy (n = 8)): 6 of 8
